Experimental data as given in PubChem BioAssay AID248 (DTP/NCI, 2004).
Values joined by “and” are separate entries in the source; they are usually repeats but may differ in a detail not shown here. Identical values can stand only once. Inconclusive results and toxic doses are left out. Cut-off read from the data, not from the text of the source: active = T/C of 150% or more; inactive = T/C below 125%.

System: L1210 leukemia ip in BDF1 mice, survival T/C
Test: NCI In Vivo Anticancer Drug Screen. Data for tumor model L1210 Leukemia (intraperitoneal) in B6D2F1 (BDF1) mice
Settings: endpoint: mean survival time, higher = longer survival
Procedure, shortened: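 Ratio derived from survival: compound-dosed mice over vehicle-dosed mice, all bearing a transplantable tumor.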

[1] = dose: 100.0 mg/kg/injection, schedule: Q01DX009 (ip), vehicle: Klucel (hydroxypropylcellulose) (HPC)
[2] = dose: 200.0 mg/kg/injection, schedule: Q01DX009 (ip), vehicle: Klucel (hydroxypropylcellulose) (HPC)
[3] = dose: 400.0 mg/kg/injection, schedule: Q01DX009 (ip), vehicle: Klucel (hydroxypropylcellulose) (HPC)
[4] = dose: 100.0 mg/kg/injection, schedule: Q01DX001 (ip), vehicle: saline
[5] = dose: 100.0 mg/kg/injection, schedule: Q04DX003 (ip), vehicle: saline with Tween-80
[6] = dose: 200.0 mg/kg/injection, schedule: Q04DX003 (ip), vehicle: saline with Tween-80
[7] = dose: 400.0 mg/kg/injection, schedule: Q04DX003 (ip), vehicle: saline with Tween-80
[8] = dose: 100.0 mg/kg/injection, schedule: Q01DX001 (ip), vehicle: carboxymethylcellulose (CMC)
[9] = dose: 200.0 mg/kg/injection, schedule: Q01DX001 (ip), vehicle: carboxymethylcellulose (CMC)
[10] = dose: 400.0 mg/kg/injection, schedule: Q01DX001 (ip), vehicle: carboxymethylcellulose (CMC)
[11] = dose: 100.0 mg/kg/injection, schedule: Q04DX003 (ip), vehicle: Klucel (hydroxypropylcellulose) (HPC)
[12] = dose: 200.0 mg/kg/injection, schedule: Q04DX003 (ip), vehicle: Klucel (hydroxypropylcellulose) (HPC)
[13] = dose: 400.0 mg/kg/injection, schedule: Q04DX003 (ip), vehicle: Klucel (hydroxypropylcellulose) (HPC)
[14] = dose: 75.0 mg/kg/injection, schedule: Q01DX001 (ip), vehicle: other
[15] = dose: 100.0 mg/kg/injection, schedule: Q04DX002 (ip), vehicle: Klucel (hydroxypropylcellulose) (HPC)
[16] = dose: 200.0 mg/kg/injection, schedule: Q04DX002 (ip), vehicle: Klucel (hydroxypropylcellulose) (HPC)
[17] = dose: 400.0 mg/kg/injection, schedule: Q04DX002 (ip), vehicle: Klucel (hydroxypropylcellulose) (HPC)
[18] = dose: 100.0 mg/kg/injection, schedule: Q01DX009 (ip), vehicle: saline with Tween-80
[19] = dose: 100.0 mg/kg/injection, schedule: Q04DX002 (ip), vehicle: saline with Tween-80
[20] = dose: 200.0 mg/kg/injection, schedule: Q01DX009 (ip), vehicle: saline with Tween-80
[21] = dose: 50.0 mg/kg/injection, schedule: Q01DX009 (ip), vehicle: saline with Tween-80

Measured: T/C

O=C(NNCc1ccccc1)C(O)C(O)C(O)CO (stereo not drawn)
inactive: dose: 25.0 mg/kg/injection, schedule: Q01DX009 (ip), vehicle: Klucel (hydroxypropylcellulose) (HPC) 93 % of control | dose: 50.0 mg/kg/injection, schedule: Q01DX009 (ip), vehicle: Klucel (hydroxypropylcellulose) (HPC) 96 % of control | [1] 104 % of control | [2] 94 % of control | [3] 103 % of control

CCOC(=O)COc1ccc(N2C(N)=NC(N)=NC2(C)C)cc1
inactive: [4] 107 % of control | dose: 100.0 mg/kg/injection, schedule: Q01DX009 (ip), vehicle: saline 117 % of control | dose: 200.0 mg/kg/injection, schedule: Q01DX001 (ip), vehicle: saline 102 % of control | dose: 200.0 mg/kg/injection, schedule: Q01DX009 (ip), vehicle: saline 98 % of control | dose: 400.0 mg/kg/injection, schedule: Q01DX001 (ip), vehicle: saline 97 % of control | dose: 400.0 mg/kg/injection, schedule: Q01DX009 (ip), vehicle: saline 104 % of control

C=CCNC(=O)Nc1cccc(O)c1
inactive: [5] 100 % of control | [6] 96 % of control | [7] 93 % of control

Cc1ccc2oc(=O)cc(C)c2c1
inactive: [8] 91 % of control | [9] 96 % of control | [10] 93 % of control

Cc1ccc(N=Cc2ccccc2)cc1
inactive: [1] 104 % of control | [11] 95 % of control | [2] 107 % of control | [12] 101 % of control | [3] 104 % of control | [13] 101 % of control

O=C(NCCN1CCCCC1)C(O)(c1ccccc1)C1CCCCC1 (stereo not drawn)
inactive: [14] 97 % of control | dose: 150.0 mg/kg/injection, schedule: Q01DX001 (ip), vehicle: other 100 % of control

CC1(C)OC(=O)CC1CCCC(=O)O (stereo not drawn)
inactive: [15] 104 % of control | [16] 96 % of control | [17] 96 % of control

CC(C)(C)NC(=O)Nc1ccc(O)cc1
inactive: [18] 112 % of control and 91 % of control | [19] 94 % of control and 100 % of control | [5] 95 % of control | [20] 100 % of control and 102 % of control | dose: 200.0 mg/kg/injection, schedule: Q04DX002 (ip), vehicle: saline with Tween-80 94 % of control and 100 % of control | [6] 113 % of control | dose: 400.0 mg/kg/injection, schedule: Q01DX009 (ip), vehicle: saline with Tween-80 120 % of control | dose: 400.0 mg/kg/injection, schedule: Q04DX002 (ip), vehicle: saline with Tween-80 100 % of control and 101 % of control | [7] 105 % of control

CCC1CCNCC1
inactive: dose: 25.0 mg/kg/injection, schedule: Q01DX009 (ip), vehicle: saline 113 % of control | dose: 50.0 mg/kg/injection, schedule: Q01DX009 (ip), vehicle: saline 102 % of control

Cc1nc(N)sc1N=Nc1ccccc1Br
inactive: dose: 75.0 mg/kg/injection, schedule: Q01DX001 (ip), vehicle: saline 103 % of control | dose: 150.0 mg/kg/injection, schedule: Q01DX001 (ip), vehicle: saline 108 % of control

O=C(O)c1cc(-c2cccc(C(F)(F)F)c2)nc2c(C(F)(F)F)cccc12
inactive: [21] 96 % of control | [18] 96 % of control | [5] 101 % of control | [6] 105 % of control

Cc1ccc(-n2c(O)c(N=Nc3ccccc3C)c(=O)n(-c3ccc(I)cc3)c2=S)cc1
inactive: dose: 37.5 mg/kg/injection, schedule: Q01DX001 (ip), vehicle: Klucel (hydroxypropylcellulose) (HPC) 101 % of control | dose: 75.0 mg/kg/injection, schedule: Q01DX001 (ip), vehicle: Klucel (hydroxypropylcellulose) (HPC) 108 % of control | dose: 150.0 mg/kg/injection, schedule: Q01DX001 (ip), vehicle: Klucel (hydroxypropylcellulose) (HPC) 92 % of control

COc1ccc(NC(=O)Nc2ccc(Cl)cc2OC)cc1
inactive: dose: 25.0 mg/kg/injection, schedule: Q04DX002 (ip), vehicle: saline with Tween-80 93 % of control | dose: 50.0 mg/kg/injection, schedule: Q04DX002 (ip), vehicle: saline with Tween-80 96 % of control | [19] 89 % of control

O=C1c2ccccc2C(=O)N1c1ccccc1-c1ccccc1
inactive: dose: 25.0 mg/kg/injection, schedule: Q01DX001 (ip), vehicle: Klucel (hydroxypropylcellulose) (HPC) 95 % of control | dose: 50.0 mg/kg/injection, schedule: Q01DX001 (ip), vehicle: Klucel (hydroxypropylcellulose) (HPC) 103 % of control | dose: 100.0 mg/kg/injection, schedule: Q01DX001 (ip), vehicle: Klucel (hydroxypropylcellulose) (HPC) 101 % of control and 121 % of control | dose: 200.0 mg/kg/injection, schedule: Q01DX001 (ip), vehicle: Klucel (hydroxypropylcellulose) (HPC) 93 % of control and 97 % of control | dose: 400.0 mg/kg/injection, schedule: Q01DX001 (ip), vehicle: Klucel (hydroxypropylcellulose) (HPC) 89 % of control

NC(=O)CC(N)C(N)=O (stereo not drawn)
inactive: dose: 100.0 mg/kg/injection, schedule: Q04DX002 (ip), vehicle: saline 98 % of control | dose: 200.0 mg/kg/injection, schedule: Q04DX002 (ip), vehicle: saline 106 % of control | dose: 400.0 mg/kg/injection, schedule: Q04DX002 (ip), vehicle: saline 109 % of control

Cc1cc(C)c(O)c(C)c1.[Hg]
inactive: dose: 12.5 mg/kg/injection, schedule: Q01DX001 (ip), vehicle: Klucel (hydroxypropylcellulose) (HPC) 87 % of control

NC(C(=O)O)C(O)C(=O)O (stereo not drawn)
inactive: dose: 75.0 mg/kg/injection, schedule: Q04DX003 (ip), vehicle: saline 98 % of control | dose: 150.0 mg/kg/injection, schedule: Q04DX003 (ip), vehicle: saline 98 % of control | dose: 300.0 mg/kg/injection, schedule: Q04DX003 (ip), vehicle: saline 96 % of control

Nc1ccc2c(c1)C(=O)c1cc(N)ccc1-2
inactive: [8] 102 % of control | [11] 103 % of control | [9] 102 % of control | [12] 103 % of control | [10] 98 % of control | [13] 108 % of control

O=C(O)c1c2ccccc2nc2[nH]c(=O)[nH]c(=O)c12
inactive: [15] 97 % of control | [16] 108 % of control | [17] 108 % of control

CCCCCCCC(=O)N1C=CN(C(=O)CCCCCCC)C1
inactive: dose: 30.0 mg/kg/injection, schedule: Q01DX001 (ip), vehicle: saline 100 % of control | [4] 94 % of control | dose: 300.0 mg/kg/injection, schedule: Q01DX001 (ip), vehicle: saline 94 % of control

COc1cc2c(cc1O)C(=O)CCC2
inactive: [21] 107 % of control | [18] 96 % of control | [20] 93 % of control

COc1cc2ccc(Cc3nccc4cc(OC)c(OC)cc34)cc2cc1OC
inactive: [1] 91 % of control | [11] 100 % of control | [2] 106 % of control | [12] 92 % of control | [3] 101 % of control | [13] 92 % of control

COc1ccc2cnnc(NN)c2c1
inactive: [14] 97 % of control

COC(=O)C1C=CCC=C1OC (stereo not drawn)
inactive: [5] 96 % of control | [6] 105 % of control | [7] 91 % of control
